The source of these data is US20110189194A1, “USE OF CD95 INHIBITORS FOR THE TREATMENT OF INFLAMMATORY DISORDERS” (Deutsches Krebsforschungszentrum Stiftung des offentlichen …, priority 2008, published 2011).

“Also recorded” adds a separate entry of the source.

The test system of test [1] is Syk. Kind of test: Western blot, CD95L-induced phosphorylation of Syk in primary macrophages. The test is classed as cell-based, mouse. The protocol: (§1) Protein extraction and immunoblotting was performed as previously described. Membranes were probed with the following antibodies: phosphorylated AKT (p-Ser473-AKT, 1:1000, Cell Signaling #9271), total AKT (t-AKT, 1:1000, Cell Signaling #9272), phosphorylated Src (p-Src Tyr 416, 1:1000, Cell Signaling #2101), total Src (1:1000, Cell Signaling #2108), phosphorylated Syk (pSyk Tyr 319/352, 1:1000, Cell Signaling #2701), total Syk (1:1000, Cell Signaling #2712).
Background: Immunoblotting shows a protein as a band on a membrane.

Test [2] relates to Syk. In words: Western blot, CD95L-induced phosphorylation of Syk in dHL-60. It counts as cell-based, human. The conditions noted are these: CD95L 20 and 40 ng/ml. The protocol: as §1
For test [3], the system named is bone marrow derived macrophages. In words: Two chamber in vitro migration assay, macrophages. It counts as cell-based, mouse. The protocol:
(§2) Migration of bone marrow derived neutrophils or macrophages was assessed in vitro in a two chamber migration assay. Transwell inserts [3 μm (BD #353096) or 8 μm (BD #353097) pore size for neutrophils or macrophages respectively] were coated with matrigel (50 μg/ml; BD #354234). 5×10^5 neutrophils or macrophages were plated in 500 μl medium onto the upper chamber. Cells were left untreated or treated with CD95L-T4 by adding 10, 20 and 40 ng/ml to the upper chamber. The number of migrated cells was counted 3 hours for neutrophils and 24 hours for macrophages after treatment.
Transfection of primary macrophages was performed at day 8 in culture with lipofectamine (Invitrogen #11668019) according to the manufacturer's protocol. Briefly, macrophages were transfected with mouse […] Syk siRNA ON-TARGETplus SMARTpool siRNA or a non-targeting SMARTpool siRNA using Lipofectamine 2000. 48 h later Syk knockdown was assessed by Western Blot. At the same time, cells were stimulated with CD95L-T4 and analysed after 24 h for migration, MMP-activity or Western blots.
Migration of bone marrow derived neutrophils or macrophages was assessed in vitro in a two chamber migration assay. […] The number of migrated cells was counted 3 h for neutrophils, 4 h for dHL-60 and 24 h for macrophages after treatment by using a hemocytometer. […]

The next test has as its system dHL-60 cells. Kind of test: Two chamber in vitro migration assay, dHL-60. The test is classed as cell-based, human. The protocol:
The human myeloid HL-60 cell line (ACC 3) was kindly provided by Dr. Lucie Darner. PMN-like differentiation of HL-60 cells and the electroporation protocol was described previously. Briefly, HL-60 cells were allowed to differentiate in presence of 1.3% DMSO for 6 days before used for protein analysis. Electroporation of dHL-60 cells was performed at day 4. For electroporation, a 400 μL aliquot of dHL-60 (1×10^7 cells/mL) in RPMI was transferred to a Gene Pulser cuvette with an 0.4-cm electrode (Bio-Rad, Hercules, Calif.) and mixed with […] Syk siRNA ON-TARGETplus SMARTpool siRNA or non-targeting SMARTpool siRNA. Cells were incubated for 10 minutes at room temperature (RT) and subjected to an electroporation pulse of 310 V and 1175 μFF (Gene Pulser Biorad, Munich, Germany). 48 h to 72 h after electroporation, Syk knockdown was assessed by Western Blot. At the same time, cells were stimulated with CD95L-T4 and analysed after 4 h for migration.
Migration of bone marrow derived neutrophils or macrophages was assessed in vitro in a two chamber migration assay. Transwell inserts [3 μm (BD #353096) or 8 μm (BD #353097) pore size for neutrophils or macrophages, respectively] were coated with matrigel (50 μg/ml; BD #354234). 5×10^5 neutrophils, 1×10^6 dHL60 or 2×10^5 macrophages were plated in 500 μl medium onto the upper chamber. Cells were left untreated or treated with CD95L-T4 (engineered Mus musculus CD95L (Kleber et al., 2008)) by adding 10, 20 and 40 ng/ml to the upper chamber. The number of migrated cells was counted 3 h for neutrophils, 4 h for dHL-60 and 24 h for macrophages after treatment by using a hemocytometer. […]
(§3) The role of metalloproteinases on neutrophil and macrophage recruitment was investigated by using selective inhibitors of MMP-2/9. Neutrophils, dHL-60 and macrophages were pre-incubated with MMP-2/9 inhibitors (50 μM; Calbiochem #444251) 30 minutes prior to CD95L-T4 treatment and the number of migrated cells was counted at the times indicated previously.

For test [4], the system named is bone marrow derived neutrophils. Kind of test: Two chamber in vitro migration assay, neutrophils. It counts as cell-based, mouse. The protocol: as §2
The role of metalloproteinases on neutrophil recruitment was investigated by using selective inhibitors of MMP-2/9. Neutrophils were pre-incubated with MMP-2/9 inhibitor (50 μM; Calbiochem #444251) 30 minutes prior to CD95L-T4 treatment and migrating cells were calculated.
Migration of bone marrow derived neutrophils or macrophages was assessed in vitro in a two chamber migration assay. Transwell inserts [3 μm (BD #353096) or 8 μm (BD #353097) pore size for neutrophils or macrophages, respectively] were coated with matrigel (50 μg/ml; BD #354234). 5×10^5 neutrophils, 1×10^6 dHL60 or 2×10^5 macrophages were plated in 500 μl medium onto the upper chamber. Cells were left untreated or treated with CD95L-T4 (engineered Mus musculus CD95L (Kleber et al., 2008)) by adding 10, 20 and 40 ng/ml to the upper chamber. The number of migrated cells was counted 3 h for neutrophils, 4 h for dHL-60 and 24 h for macrophages after treatment by using a hemocytometer. […] Data of the migration assays are representative of at least 4 independent experiments with 6 technical replicates per condition.
as §3

Consider `CC(C)(C)n1nc(-c2ccc(Cl)cc2)c2c(N)ncnc21` [PP2], for which, in the test with Syk [1], the “CD95L-induced phosphorylation of Syk in primary macrophages” value is reported as “blocked; also recorded: inhibited”. Moreover, the “CD95L-induced phosphorylation of Syk in dHL-60” value with Syk [2] is reported as “blocked; also recorded: inhibited”.

Turning to `O=C(O)[C@@H](Cc1ccccc1)NS(=O)(=O)c1ccc(-c2ccccc2)cc1` [MMP-2/9 inhibitor], in test [3], the “CD95L-T4 induced migration of macrophages (in words)” value is “blocked”. For the same compound, in test [3] (CD95L-T4 20 ng/ml, with or without inhibitor 50 μM), the “migration after MMP-2/9 blockade, macrophages, cell count ± SEM” value was found to be 323.80 ± 100.20. Moreover, in the test on dHL-60 cells, the “CD95L-T4 induced migration of dHL-60 (in words)” value is given as “blocked”. In addition, the “migration after MMP-2/9 blockade, dHL-60, cell count ± SEM” value with dHL-60 cells (CD95L-T4 40 ng/ml, with or without inhibitor 50 μM) is given as 40 ng/ml: 683.09 ± 170.89; in the test with dHL-60 cells (Control (no CD95L-T4), inhibitor 50 μM), “Control: 658.09 ± 137.65”. Besides, the “CD95L-T4 induced migration of neutrophils (in words)” value in test [4] is given as “blocked”. In addition, the “migration after MMP-2/9 blockade, neutrophils, cell count ± SEM” value in test [4] (CD95L-T4 10 ng/ml, with or without inhibitor 50 μM) is recorded as 10 ng/ml: 724.69 ± 150.01; in test [4] (Control (no CD95L-T4), inhibitor 50 μM, 30 min pre-incubation), “Control: 713.00 ± 161.89”.
